Experimental data reported in patent US5430157A, “Reduced phenanthrenes” (Eli Lilly and Company, priority 1993, dated 1995).

Molecular target: T1, Type II 5α-reductase from human prostate (Homo sapiens, UniProt P31213)
T1 construct: Human prostate tissue from prostate surgeries was obtained immediately after surgery, frozen on dry ice; from tissue; host or cells: human prostate tissue from surgery; homogenate, 100,000 x g pellet resuspended
T1 sequence (P31213 1-254): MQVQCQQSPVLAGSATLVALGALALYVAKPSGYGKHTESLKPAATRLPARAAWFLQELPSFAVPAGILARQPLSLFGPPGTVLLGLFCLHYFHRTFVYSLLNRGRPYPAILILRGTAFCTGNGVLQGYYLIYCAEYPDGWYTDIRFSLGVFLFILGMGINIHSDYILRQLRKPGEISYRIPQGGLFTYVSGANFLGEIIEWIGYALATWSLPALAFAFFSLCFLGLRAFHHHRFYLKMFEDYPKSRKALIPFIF
Assay: Human Type II steroid 5α-reductase assay (conversion of [3H]-testosterone to DHT)
Format: biochemical
Conditions: human prostate enzyme preparation, 50 nM [3H]-testosterone, pH 5.5, 30 min at 25°, compared to control reaction mixtures; read-out: 50% inhibitory concentration
Protocol: Methodology of Human Type II Steroid 5α-Reductase Assays
Preparation of Type II 5α-Reductase from Human Prostate:
Human prostate tissue from prostate surgeries was obtained immediately after surgery, frozen on dry ice and stored at -80° C. The tissue was frozen with liquid nitrogen and pulverized to powder. The powder was homogenized in ice-cold buffer (20 mM sodium phosphate, pH 6.5) using a Brinkmann Polvtron (Westbury, N.Y.) with a PTA 10-S probe and a setting of 7. The homogenization procedure consisted of four 15 second pulses. Connective tissue was cleared from the probe with forceps between pulses. […]
This enzyme assay is based on the conversion of [^3 H]-testosterone to [^3 H]-5α-dihydrotestosterone (DHT) and other 5α-reduced metabolites. […] Essentially no androsterone was detected. […]
The [^3 H]-testosterone substrate and its metabolites were separated by chromatography using a C-18 reversed phase column (Beckman Ultrasphere 5 μm spherical 80A pore, part no. 235329, 4.6 mm i.d..div.25 mm length) with an isocratic mobile phase (46 water: 46 methanol: 8 tetrahydrofuran by volume). […] A 400 μl aliquot was injected onto the column and radioactivity was determined using a Beckman 171 in-line flow radioisotope detector in conjunction with Rainin Dynamax™ software and a Macintosh computer. […]

Row | IC50 [nM] | Compound
1 | 150 | C[C@]12CCC(C(=O)O)=CC1=CCc1cc(Cl)ccc12 [Example 1, (-)-2-Chloro-4b-methyl-4b,5,6,10-tetrahydrophenanthrene-7-carboxylic acid]
2 | 600 | C[C@]12CCC(c3nnn[nH]3)=CC1=CCc1cc(Cl)ccc12 [Example 2, (-)-2-Chloro-4b-methyl-4b,5,6,10-tetrahydrophenanthrene-7-(1-tetrazole)]
